Patent EP0731697B1, “SSI TYRPHOSTINS AND PHARMACEUTICAL COMPOSITIONS” (priority 1993, dated 1995)

Key:
mice = assay: LPS toxicity and mortality in mice sensitized with galactosamine; format: in vivo, mice (strain (CD1))
Protocol: In this model for organ failure, mice (strain (CD1)) are injected (i.p.) simultaneously with galactosamine (18 mg/mouse) and LPS (50 ng/mouse). The LD50 of LPS used in this model is approximately 30,000 lower than the LD50 of LPS used alone. The main toxic manifestation in this model is liver damage and mice develop severe hypoglycemia and die within 7-8 hours.
Serial blood glucose determinations were done in individual animals (2 mice per group). […] Administration of the tyrphostins SSI 3, 400 ug/mouse or SSI 17, 200 ug/mouse 2 hours prior to galactosamine and LPS, prevents hypoglycemia (blood glucose level were approximately […] at 0 and the same after 24 hours) and mortality for over 5 days.

p42^MAPK = assay: LPS-induced tyrosine phosphorylation in macrophages; format: cell-based; conditions: murine peritoneal macrophages pre-treated with protective concentrations
Description: LPS-induced tyrosine phosphorylation of a 42 kD protein in murine peritoneal macrophages was inhibited by pre-treating the cells as before with protective concentrations of SSI 3. This protein band was identified as p42^MAPK. […] (Stefanova et al., supra.)

Her-2/neu receptor = Her-2/neu receptor (Homo sapiens, UniProt P04626); conditions: even at concentrations above 100 uM; cited from earlier work
PDGFR = conditions: even at concentrations above 100 uM; cited from earlier work
TNF-α = assay: LPS-induced production of TNF-α by activated murine peritoneal macrophages in vitro
Protocol: The amount of TNF-α was quantitated by assessing the extent of killing of the TNF-α sensitive cell line (A9) essentially as described by Ruff and Gilford, G. E. J. Immunol. […] Briefly, mouse A9 fibroblasts were plated in 96-well flat-bottom micro-titer plates at 30,000 cells /0.1 ml to establish a dense monolayer. After incubation for 24 hr at 37 C in a humidified 5% CO2 atmosphere, cycloheximide was added to a final concentration of 50 ug/ml and 100 ul of serially diluted test samples were added to the wells. After incubation for additional 18 hr the supernatants were carefully aspirated, the monolayer were washed twice with PBS and 200 ul of neutral red solution (0.02%) was added. After incubation for 2 hr, cells were washed and the dye that had been absorbed by the live cells was extracted using 200 ul of 50% ethanol. The concentration of the dye was determined by an ELISA autoreader using a 550 nm filter. Murine TNF-α ELISA kit from ENDOGEN Inc., was used for quancitation of murine TNF-α.
Mice were injected i.p. with 1 ml sodium periodate (5mM). Three to 4 days later, macrophages were washed from the peritoneal cavity with PBS. After centrifugation at 170g for 10 min at 40° C, the cell pellet was resuspended in RPMI 1640 containing 10% heat-inactivated new born calf serum. Adherent macrophage monolayers were obtained by plating the cells in 96-well plastic trays at 4x10^5 cells/well for 2 hr at 37°C in 5% CO2/air. Nonadherent cells were removed by suction and complete medium was added.

Chain of Her-2/neu receptor (P04626 23-1255): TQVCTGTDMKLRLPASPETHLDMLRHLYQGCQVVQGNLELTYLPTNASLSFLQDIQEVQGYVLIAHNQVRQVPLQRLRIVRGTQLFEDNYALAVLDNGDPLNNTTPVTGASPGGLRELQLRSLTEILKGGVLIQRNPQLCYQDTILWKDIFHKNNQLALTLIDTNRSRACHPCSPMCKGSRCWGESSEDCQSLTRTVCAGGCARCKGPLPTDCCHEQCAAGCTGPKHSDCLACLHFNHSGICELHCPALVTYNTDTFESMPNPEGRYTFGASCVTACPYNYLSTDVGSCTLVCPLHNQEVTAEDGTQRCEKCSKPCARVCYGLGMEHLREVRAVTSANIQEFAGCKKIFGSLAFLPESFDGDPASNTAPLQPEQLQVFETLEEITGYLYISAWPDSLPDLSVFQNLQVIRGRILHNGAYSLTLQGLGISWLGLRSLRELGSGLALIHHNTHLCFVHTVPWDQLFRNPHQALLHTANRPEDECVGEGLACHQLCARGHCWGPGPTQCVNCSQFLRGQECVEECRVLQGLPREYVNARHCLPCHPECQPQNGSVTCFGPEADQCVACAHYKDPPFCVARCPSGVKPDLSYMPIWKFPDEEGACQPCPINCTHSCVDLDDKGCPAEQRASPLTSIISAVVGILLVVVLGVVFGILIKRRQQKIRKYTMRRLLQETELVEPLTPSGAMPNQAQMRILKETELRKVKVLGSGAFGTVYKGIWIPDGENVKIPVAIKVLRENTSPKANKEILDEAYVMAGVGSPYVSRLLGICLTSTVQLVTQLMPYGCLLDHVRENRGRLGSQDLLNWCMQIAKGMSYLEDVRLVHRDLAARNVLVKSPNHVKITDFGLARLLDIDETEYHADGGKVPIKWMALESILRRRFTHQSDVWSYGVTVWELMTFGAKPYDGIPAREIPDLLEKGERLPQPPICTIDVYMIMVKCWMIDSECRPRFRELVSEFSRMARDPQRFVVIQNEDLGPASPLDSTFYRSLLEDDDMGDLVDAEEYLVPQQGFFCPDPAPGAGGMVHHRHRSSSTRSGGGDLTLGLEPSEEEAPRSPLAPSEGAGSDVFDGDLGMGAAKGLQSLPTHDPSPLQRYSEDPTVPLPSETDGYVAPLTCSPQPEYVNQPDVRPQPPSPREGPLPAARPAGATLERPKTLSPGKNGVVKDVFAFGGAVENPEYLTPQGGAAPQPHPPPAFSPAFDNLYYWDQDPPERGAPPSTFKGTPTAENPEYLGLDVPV

N#CC(C#N)=Cc1ccc([N+](=O)[O-])c(O)c1 [SSI 3]
blood glucose level (mice; after 24 hours, SSI 3 400 ug/mouse or SSI 17 200 ug/mouse 2 hours prior to galactosamine (18 mg/mouse) and LPS (50 ng/mouse), 2 mice per group): approximately 100 % mg
hypoglycemia and mortality (mice; mortality for over 5 days, SSI 3 400 ug/mouse or SSI 17 200 ug/mouse 2 hours prior to galactosamine and LPS): prevents
LPS-induced tyrosine phosphorylation of a 42 kD protein (p42^MAPK): inhibited
effect on Her-2/neu receptor (Her-2/neu receptor): no effect
effect on PDGFR (PDGFR): no effect
TNF-α (TNF-α; LPS +): <5 pg/mL
TNF-α (TNF-α; LPS -): <5 pg/mL
ability to inhibit LPS-induced production of TNF-α by activated murine peritoneal macrophages in vitro (TNF-α; among the tyrphostins tested): most potent
